This note sets out measurements from patent publication US10626107B2, “Crystal form, salt type of substituted 2-hydro-pyrazole derivative and preparation method therefor” (CHIA TAI TIANQING PHARMACEUTICAL GROUP CO., LTD., priority 2016, dated 2020).

The subject of data set [1] is human lung cancer LU-01-0393 subcutaneous xenograft tumor. Kind of data set: In vivo drug efficacy study (II): human lung cancer LU-01-0393 subcutaneous xenograft tumor model. More on the design: species or system BALB/c nude mice. The settings on record: 45 mg/kg PO QD × 3W. An excerpt:
Cell line-derived xenograft (CDX) BALB/c nude mice that were female, 6- to 8-week old, weighed 17 to 20 g, and subcutaneously implanted with human tumor cell line derived from LU-01-0393 lung cancer patient were used. A total of 72 mice were needed and were purchased from Shanghai Xipuer-Bikai Experimental Animal Co., Ltd. Human lung cancer LU-01-0393 tumor (i.e., non-small cell lung cancer) was originally derived from a clinical sample of a surgical resection. It was defined as passage PO after being inoculated to nude mice, and the tumor of passage PO was re-inoculated to nude mice and was then defined as passage P1, and so forth. Passage was performed in nude mice. LU-01-0393-FP5 was obtained from the transplantation after the recovery of P4. This study would use the tumor tissue of passage FP6.
BALB/c nude mice that were female, 6- to 8-week old, and weighed approximately 17 to 20 g were used. The mice were maintained in separate ventilated cages in a special pathogen-free environment. All the cages, bedding and water were disinfected prior to use. All the animals were free to access a standard certified commercial laboratory diet. A total of 72 mice purchased from Shanghai Xipuer-Bikai Experimental Animal Co., Ltd. were used for the study. The LU-01-0393 FP6 tumor tissue was cut to 20 to 30 mm^3 and inoculated to the right back of each mouse to wait for the tumor growth. When the average tumor volume reached about 171 mm^3, the mice were randomized into groups and administered. The test compounds were orally administered daily, and the administration dosages were as shown in the above table. The tumor diameters were measured twice a week using a two-dimensional caliper. The tumor volumes were calculated by the following formula: V=0.5 a×b^2, wherein a and b were the long diameter and the short diameter of a tumor, respectively. The anti-tumor efficacy was determined by dividing the average increase of the tumor volumes of the animals treated with a compound by the average increase of the tumor volumes of the animals without being treated with the compound.
In general terms: Xenograft models place foreign cells or tissue in a host animal.

A further data set addresses CDK6/cyclin D1 (Homo sapiens (Human), UniProt Q00534). Nature of the data set: CDK6/cyclin D1 enzymatic activity (Lance Ultra). It is filed as biochemical. The settings on record: 180 minutes. The method, then: The components of the buffer included 50 mM hydroxyethylpiperazine ethanesulfonic acid solution (pH 7.5), 1 mM ethylenediaminetetraacetic acid, 10 mM magnesium chloride, 0.01% Brij-35, and 2 mM dithiothreitol.

A short description of data set [2]: Study on the hygroscopicity (dynamic vapor sorption). It is filed as physicochemical. To be noted: 25° C. and 80% RH. The method, then: Model of instrument: SMSDVS Advantage dynamic vapor sorption analyzer
Test conditions: A sample (10 to 15 mg) was placed in a DVS sample pan for testing.
DVS parameters: • Temperature: 25° C. • Balance: dm/dt=0.01%/min (minimum: 10 min, maximum: 180 min) • Drying: drying for 120 min at 0% RH • Test gradient of RH (%): 10% • Test gradient range of RH (%): 0%-90%-0%

Chain of CDK6/cyclin D1 (Q00534 whole entry): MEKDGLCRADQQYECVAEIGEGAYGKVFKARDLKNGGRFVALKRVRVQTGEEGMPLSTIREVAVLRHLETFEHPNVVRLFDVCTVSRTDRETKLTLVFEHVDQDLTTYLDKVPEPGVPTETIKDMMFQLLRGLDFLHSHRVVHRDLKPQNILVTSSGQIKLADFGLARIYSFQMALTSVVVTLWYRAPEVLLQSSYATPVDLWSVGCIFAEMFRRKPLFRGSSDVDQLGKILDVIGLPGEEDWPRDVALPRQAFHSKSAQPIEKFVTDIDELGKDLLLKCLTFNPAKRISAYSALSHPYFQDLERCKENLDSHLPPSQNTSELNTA
Chain of CDK6/cyclin D1 (P24385 whole entry partner): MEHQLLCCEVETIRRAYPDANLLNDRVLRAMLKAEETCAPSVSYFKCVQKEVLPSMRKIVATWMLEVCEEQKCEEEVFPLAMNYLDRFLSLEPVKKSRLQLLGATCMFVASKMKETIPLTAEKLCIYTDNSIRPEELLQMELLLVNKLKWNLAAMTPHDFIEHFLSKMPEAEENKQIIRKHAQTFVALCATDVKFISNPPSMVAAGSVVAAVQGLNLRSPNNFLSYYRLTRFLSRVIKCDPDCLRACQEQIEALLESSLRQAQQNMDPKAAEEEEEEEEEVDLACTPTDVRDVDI

As usually defined, the IC50 is the midpoint of a concentration-inhibition curve. A low value points to higher potency. As to `CC(C)c1c2cc(-c3nc(Nc4ccc(N5CCNCC5)cn4)ncc3F)ccc2nn1C.O=C(O)/C=C\C(=O)O` [A crystal form of compound WX_1], the “Tumor volume Day 0” value in data set [1] (Day 0) came to 171 ± 26 mm^3. In addition, the “Tumor volume Day 7” value in data set [1] (Day 7) was determined as 172 ± 33 mm^3. The “Tumor volume Day 14” value in data set [1] (Day 14) was 150 ± 29 mm^3. Moreover, the “Tumor volume Day 21” value in data set [1] (Day 21) is given as 175 ± 42 mm^3. Also, at CDK6/cyclin D1, the half-maximal inhibitory concentration (IC50) is < 0.8 nM. The same compound came in with a hygroscopic weight gain in data set [2] of 1.48%.
